Experimental findings from ChEMBL document CHEMBL1201862, “PubChem BioAssay data set” (2004) are described below.

Some test systems named below: LOX IMVI; 786-0; RXF 393; NCI-H23; HOP-92; ACHN; SW-620; OVCAR-8; MDA-N; SNB-19; SF-295; SR; A549; KM12; PC-3; TK-10; Hs-578T; SK-MEL-2; T47D; HCC 2998.
Holding throughout (assay): growth of human tumour cells (NCI), 48 h

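How tested: cells in 96-well plates exposed to compound for 48 hours at five concentrations. GI50 = concentration required for 50% inhibition of growth.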 The source made the active and inactive calls. Rule as the data show it: active = GI50 up to about 1.1 µM and inactive = higher.

On to `CN(CC(=O)O)c1ncc2c(n1)C=CCC2`, for which the GI50 in the experiment on LOX IMVI, in the experiment with 786-0, with RXF 393, with NCI-H23, in the experiment with HOP-92 and in the experiment with ACHN was > 100 µM (inactive) each time. The GI50 with SW-620, with OVCAR-8, in the experiment on MDA-N, in the experiment with SNB-19, in the experiment with SF-295 and in the experiment with SR was > 100 µM (inactive) throughout. The GI50 in the experiment on A549, in the experiment with KM12, with PC-3, in the experiment with TK-10, with Hs-578T and in the experiment on SK-MEL-2 was > 100 µM (inactive) each time.

Take `O=C1c2c(ccc3c2CCC3)CC1Cc1ccc2c(c1)CCC2` (configuration not stated): the GI50 with LOX IMVI is 25.4 µM (inactive); in the experiment on 786-0 it was 32.3 µM (inactive); in the experiment with RXF 393, 25.7 µM (inactive); with NCI-H23, 21.6 µM (inactive); in the experiment with ACHN, 36.1 µM (inactive); with SW-620, 17.1 µM (inactive). In addition, the GI50 in the experiment with OVCAR-8 was 36.3 µM (inactive); with MDA-N, 30.8 µM (inactive); in the experiment with SNB-19 it was 48.5 µM (inactive); in the experiment with SF-295, 26.9 µM (inactive); in the experiment with T47D, 3.05 µM (inactive); in the experiment with SR, 5.27 µM (inactive). The GI50 is 28.9 µM (inactive) in the experiment on A549; 25.2 µM (inactive) with KM12; 34.3 µM (inactive) in the experiment with HCC 2998; 29.2 µM (inactive) with TK-10; 10 µM (inactive) in the experiment on Hs-578T; 27.2 µM (inactive) in the experiment on SK-MEL-2.

For `CC1NC(/C(=C/c2ccccc2O)NC(=O)c2ccccc2)OC1=O` (configuration not stated), the GI50 was > 50 µM (inactive) with LOX IMVI; 16.3 µM (inactive) in the experiment with 786-0; > 50 µM (inactive) with NCI-H23; 11 µM (inactive) in the experiment on HOP-92; 22.4 µM (inactive) in the experiment with ACHN; > 50 µM (inactive) in the experiment with SW-620. Also, the GI50 in the experiment with OVCAR-8 is > 50 µM (inactive); with MDA-N, 4.05 µM (inactive); in the experiment with SNB-19, > 50 µM (inactive); in the experiment with SF-295 it was > 50 µM (inactive); with T47D, 27.7 µM (inactive); with SR, 2.52 µM (inactive). Further, the GI50 in the experiment with A549 was > 50 µM (inactive); in the experiment with KM12, 4.74 µM (inactive); with HCC 2998 it was > 50 µM (inactive); with PC-3, 30.7 µM (inactive); with TK-10, > 50 µM (inactive); with SK-MEL-2 it was > 50 µM (inactive).

For `C=C(C)CC1=C(OCC)C(OC)(OCC)C1=O` (configuration not stated), the GI50 in the experiment with LOX IMVI, in the experiment on 786-0, in the experiment on NCI-H23, with HOP-92, in the experiment on ACHN and in the experiment on SW-620 was > 100 µM (inactive) in each case. For the same compound, the GI50 in the experiment on OVCAR-8, with MDA-N, in the experiment with SNB-19, in the experiment on SF-295, with T47D and in the experiment on A549 was > 100 µM (inactive) throughout. Also, the GI50 with KM12, with PC-3, in the experiment on TK-10, in the experiment on Hs-578T and in the experiment with SK-MEL-2 was > 100 µM (inactive) each time.

Turning to `N=C(N)c1ccc2oc3ccc(C(=N)N)cc3c(=O)c2c1`, the GI50 with 786-0, in the experiment with RXF 393, in the experiment on NCI-H23, in the experiment with HOP-92, in the experiment on ACHN and in the experiment on SW-620 was > 100 µM (inactive) in each case. For the same compound, the GI50 in the experiment with OVCAR-8, in the experiment with MDA-N, in the experiment on SNB-19, with SF-295, with T47D and in the experiment on A549 was > 100 µM (inactive) each time. For the same compound, the GI50 with KM12, in the experiment on HCC 2998, with PC-3, in the experiment with TK-10 and with SK-MEL-2 was > 100 µM (inactive) in each case.

With `CC(=O)/C(=C/NC(=S)c1ccncc1)C(=O)Nc1ccccc1C`, the GI50 in the experiment with LOX IMVI, in the experiment with 786-0, in the experiment with RXF 393, in the experiment with NCI-H23, in the experiment with HOP-92 and with ACHN was > 100 µM (inactive) in each case. Also, the GI50 in the experiment on SW-620, in the experiment on OVCAR-8, in the experiment with MDA-N, in the experiment with SNB-19, in the experiment on SF-295 and in the experiment on T47D was > 100 µM (inactive) each time. The GI50 in the experiment with A549, in the experiment on KM12, with HCC 2998, in the experiment with TK-10 and in the experiment on SK-MEL-2 was > 100 µM (inactive) throughout.

On to `CC(C)(C)[C@@H]1NC(=O)CN1C(=O)OCc1ccccc1`, for which the GI50 with LOX IMVI, in the experiment on 786-0, in the experiment with RXF 393, in the experiment on NCI-H23, with HOP-92 and in the experiment with ACHN was > 100 µM (inactive) in each case. For the same compound, the GI50 with SW-620, in the experiment on OVCAR-8, with SNB-19, in the experiment with SF-295, in the experiment with T47D and in the experiment with SR was > 100 µM (inactive) each time. Further, the GI50 with A549 was > 100 µM (inactive); in the experiment with KM12 it was > 100 µM (inactive); in the experiment with HCC 2998 it was > 100 µM (inactive); in the experiment on PC-3, > 100 µM (inactive); in the experiment with TK-10, > 100 µM (inactive); with Hs-578T it was 0.661 µM (active). Also, the GI50 in the experiment with SK-MEL-2 was > 100 µM (inactive).

Consider `Oc1nncc2[nH]c(-c3ccccc3)cc12`, for which the GI50 in the experiment on LOX IMVI is 66.1 µM (inactive); in the experiment with 786-0 it was 75 µM (inactive); in the experiment with RXF 393, 27 µM (inactive); in the experiment with NCI-H23, 48.9 µM (inactive); in the experiment on HOP-92, > 100 µM (inactive); with ACHN, 46.3 µM (inactive). In addition, the GI50 was 64.4 µM (inactive) in the experiment with SW-620; 78.7 µM (inactive) with OVCAR-8; 38.9 µM (inactive) in the experiment on MDA-N; > 100 µM (inactive) with SNB-19; 26.2 µM (inactive) in the experiment with SF-295; 23.7 µM (inactive) in the experiment with T47D. Besides, the GI50 in the experiment on SR was 46.5 µM (inactive); in the experiment with A549, 49.3 µM (inactive); with KM12 it was 35.1 µM (inactive); in the experiment with HCC 2998 it was 36 µM (inactive); in the experiment with PC-3 it was 30.1 µM (inactive); in the experiment with TK-10 it was 39.4 µM (inactive). For the same compound, in the experiment with SK-MEL-2, the GI50 is 29.6 µM (inactive).

Take `O=c1c2c3c(sc2nc2n1N=C(c1ccc(Br)cc1)CS2)CCCC3`: the GI50 in the experiment on LOX IMVI, with 786-0, with RXF 393, in the experiment with NCI-H23, in the experiment on HOP-92 and in the experiment with ACHN was > 100 µM (inactive) each time. The GI50 with SW-620, with OVCAR-8, with MDA-N, in the experiment with SNB-19, with SF-295 and in the experiment on T47D was > 100 µM (inactive) in each case. Further, the GI50 in the experiment on SR, with A549, in the experiment with KM12, with HCC 2998, with PC-3 and in the experiment with TK-10 was > 100 µM (inactive) throughout.

As to `CC(C)C/C=C/C1=NN(c2cccc(S(=O)(=O)O)c2)C2(C1)SCC(=O)N2c1nc2ccccc2s1` (configuration not stated), the GI50 in the experiment with LOX IMVI was 26.8 µM (inactive); in the experiment with 786-0 it was 21.3 µM (inactive); in the experiment on RXF 393, 98.4 µM (inactive); in the experiment with NCI-H23 it was 99.5 µM (inactive); in the experiment with HOP-92 it was > 100 µM (inactive); with ACHN it was 72.4 µM (inactive). Further, the GI50 in the experiment with SW-620 is 96.6 µM (inactive); with OVCAR-8, 66.2 µM (inactive); in the experiment with SNB-19, 50 µM (inactive); with T47D, 5.43 µM (inactive); in the experiment with SR, 25.2 µM (inactive); with A549 it was 89.1 µM (inactive). The GI50 was 36.7 µM (inactive) in the experiment on KM12; > 100 µM (inactive) in the experiment with HCC 2998; 40 µM (inactive) in the experiment on PC-3; 34.4 µM (inactive) in the experiment with TK-10; 56.8 µM (inactive) in the experiment on Hs-578T; 35.2 µM (inactive) in the experiment with SK-MEL-2.

Take `Nc1ncnc2c1nc(Cl)n2C1OC2COP(=O)(O)OC2C1O` (configuration not stated): the GI50 is 1.19 µM (inactive) in the experiment with LOX IMVI; 5.04 µM (inactive) with 786-0; 3.15 µM (inactive) in the experiment on RXF 393; 7.24 µM (inactive) in the experiment on NCI-H23; 4.99 µM (inactive) in the experiment on ACHN; 3.47 µM (inactive) in the experiment with SW-620. Further, the GI50 in the experiment with OVCAR-8 is 3.9 µM (inactive); in the experiment with MDA-N, 6.43 µM (inactive); with SNB-19, > 100 µM (inactive); in the experiment on SF-295, > 35.4 µM (inactive); in the experiment on T47D it was 2.38 µM (inactive); in the experiment on SR, 3.55 µM (inactive). In addition, the GI50 in the experiment with A549 was 23.3 µM (inactive); with KM12, 41.6 µM (inactive); in the experiment on HCC 2998 it was 38.9 µM (inactive); in the experiment with TK-10, 6.49 µM (inactive); with Hs-578T, 19.6 µM (inactive); in the experiment on SK-MEL-2, > 100 µM (inactive).
